These are literature values, as cited in EP0773217A1, “Benzothiphene derivatives for treating resistant tumors” (ELI LILLY AND COMPANY, priority 1995, dated 1997).

For one series, the system named is HL60/S cells. To be noted: no P-glycoprotein expression.
For another series, the system named is HL60/Adr cells. To be noted: HL60/Adr cells (resistant to doxorubicin, express p190, no P-glycoprotein).

Each structure is given as a SMILES string. ≈ marks a conversion by molar mass, not a printed value.

By IC50 is commonly meant the concentration that gives 50% inhibition. On to `COc1cc([C@@H]2c3cc4c(cc3[C@@H](O[C@@H]3O[C@@H]5CO[C@@H](C)O[C@H]5[C@H](O)[C@H]3O)[C@H]3COC(=O)[C@H]23)OCO4)cc(OC)c1O` [ETOPOSIDE™, etoposide], for which the IC50 in the series with HL60/S cells was 0.39 µg/mL (≈ 0.663 µM); with HL60/Adr cells it was more than 10 µg/mL.
Turning to `COc1cccc2c1C(=O)c1c(O)c3c(c(O)c1C2=O)C[C@@](O)(C(=O)CO)C[C@@H]3O[C@H]1C[C@H](N)[C@H](O)[C@H](C)O1` [ADRIAMYCIN™, Doxorubicin], the IC50 with HL60/S cells is 0.011 µg/mL (≈ 0.0202 µM); with HL60/Adr cells, 2.2 µg/mL (≈ 4.05 µM).
